Like-named read-outs stand apart in the source and are kept apart here.
How the values were obtained:
[1] = system: pseudovirus bearing SARS-CoV-2 S protein, delta (B.1.617.2) variant; test: microbe, parasite or virus in culture; type: cell-based; details: HEK-293T, read-out: IC50, inhibition of cell entry of pseudovirus (delta var.)
[2] = system: SARS-CoV-2 spike protein pseudotyped VSV-ΔG; test: microbe, parasite or virus in culture; type: cell-based
[3] = Severe acute respiratory syndrome coronavirus 2, Vero C1008, read-out: IC50, inhibition of VSV-ΔG pseudovirus entry

SMILES | IC50 [1] [µM] | IC50 [2, 3] [nM] | IC50 ([2]; read-out: IC50, inhibition of VSV-ΔG pseudovirus entry) [nM]
Nc1c(/N=N/c2ccc([N+](=O)[O-])cc2)c(S(=O)(=O)O)cc2cc(S(=O)(=O)O)c(/N=N/c3ccccc3)c(O)c12 [NBlBk, naphthol blue black] | 388 |  | 
CN(C)c1ccc2nc3ccc(=[N+](C)C)cc-3sc2c1 [MeBlu, methylene blue] | 4.7 | 2500 | 2460
CCN(CCO)CCCC(C)Nc1ccnc2cc(Cl)ccc12 (stereo not shown) [HCQ, hydroxychloroquine] | 75.1 |  | 
O=S(=O)(O)c1ccc(N=Nc2c(O)ccc3cc(S(=O)(=O)O)ccc23)cc1 [SY(FD&C#6), sunset yellow FCF] | > 500 | > 250000 | 

Reference: PMC9144480 (Pharmaceuticals, 2022)
